Results on 16 compounds are retold here after US20200216432A1, “SULFONAMIDE DERIVATIVES AS STAT3 INHIBITORS FOR THE TREATMENT OF PROLIFERATIVE DISEASES” (King's College London, priority 2017, published 2020).

The structures appear in SMILES notation. pIC50: −log10 of the molar value.

The target in experiment [1] is unphosphorylated STAT3 monomer (uSTAT3) SH2 domain (Homo sapiens, UniProt P40763). Kind of experiment: Fluorescence polarisation assay for the inhibition of STAT3 dimerisation. The format is binding. The settings on record: 350 nM uSTAT3, 10 nM FAM-pYLPQTV, 100 μM ligand; average of triplicate. From the text: Fluorescence Polarisation Assay for the Inhibition of STAT3 Dimerisation
Chain of unphosphorylated STAT3 monomer (uSTAT3) SH2 domain (P40763 whole entry, the tested form may be a part): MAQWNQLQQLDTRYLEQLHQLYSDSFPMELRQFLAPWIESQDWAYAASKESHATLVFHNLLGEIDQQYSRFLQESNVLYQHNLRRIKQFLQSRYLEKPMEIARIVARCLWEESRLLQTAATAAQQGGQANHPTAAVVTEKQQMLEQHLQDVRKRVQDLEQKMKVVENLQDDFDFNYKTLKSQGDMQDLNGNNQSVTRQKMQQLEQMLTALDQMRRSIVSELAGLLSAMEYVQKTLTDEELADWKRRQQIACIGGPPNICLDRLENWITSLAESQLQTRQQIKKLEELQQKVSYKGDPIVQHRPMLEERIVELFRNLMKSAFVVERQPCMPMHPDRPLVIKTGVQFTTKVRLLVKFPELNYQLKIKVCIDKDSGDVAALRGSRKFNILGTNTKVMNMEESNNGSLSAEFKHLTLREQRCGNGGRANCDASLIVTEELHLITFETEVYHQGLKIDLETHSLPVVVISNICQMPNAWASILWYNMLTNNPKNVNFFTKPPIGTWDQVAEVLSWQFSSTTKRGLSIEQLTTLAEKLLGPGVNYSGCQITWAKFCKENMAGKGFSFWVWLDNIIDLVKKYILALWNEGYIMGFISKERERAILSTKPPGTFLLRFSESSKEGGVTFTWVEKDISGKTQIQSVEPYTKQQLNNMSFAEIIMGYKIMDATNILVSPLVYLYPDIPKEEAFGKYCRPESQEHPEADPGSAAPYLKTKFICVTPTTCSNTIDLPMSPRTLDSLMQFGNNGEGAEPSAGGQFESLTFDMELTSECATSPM
The compounds were subjected to an in vitro fluorescent polarisation (FP)-based primary PPI binding screen to assess their ability to inhibit STAT3 dimerisation by interacting with the SH2 domain. In this FP assay, the unphosphorylated STAT3 monomer (uSTAT3) and a surrogate peptide FAM-pYLPQTV were used to form a ‘pseudo-dimer’. The assay is based on the concept that the compounds were expected to displace the surrogate peptide from the uSTAT3 resulting in a fluorescent read out.
Specifically, for the FP assay, a black (CORNING™) 96 well plate was thoroughly washed with distilled water and allowed to dry. A 100 nM FAM-pYLPQTV working solution was prepared from 10 μM FAM-pYLPQTV stock solution (in DMSO) using PBS pH 7.4 Buffer. 10 μl FAM-pYLPQTV was added to 350 nM uSTAT3 protein, the final concentration of protein in each well, in 90 μl PBS buffer pH 7.4. The MP value of the surrogate dimer complex was measured using a fluorescent plate reader (Envision™, Perkin Elmer™, USA), which provided the base MP value. The inhibitor solution was then added to the well and the assay plate was placed on a shaker for 5 minutes. The MP value for each well was then measured again. A shift in fluorescent values was observed due to displacement of the fluorescently-labelled surrogate peptide by the inhibitors, and the average inhibition for each inhibitor could be calculated as described below:
Base MP value (X) for each well=MP value of Protein and Probe (350 nm STAT3+10 nM FAM-pYLPQTV)−MP value of free FAM-pYLPQTV
Inhibitor MP value (Y) for each well=MP value of Protein+Probe+Inhibitor (350 nm uSTAT3+10 nM FAM-pYLPQTV+2 μL Inhibitor)−MP value of free FAM-pYLPQTV with 2 μL DMSO
% inhibition by any ligand/peptide=(X−Y)/X*100
For comparison purpose, the % inhibition produced by 100 μM pYLKTKF was considered to be 100%, and the inhibition produced by different ligands was reported as relative to 100 μM pYLKTKF.
% Inhibition produced by 100 μM pYLKTKF=A
% Inhibition produced by 100 μM Ligand=B
Relative inhibition (%)=B/A*100
The experiment was carried out in triplicate, and average values were taken as the measure of PPI inhibition.

Experiment [2] relates to MDA-MB-231 breast (STAT3-dependent) cancer cell line. Kind of experiment: MTT cell viability assay, MDA-MB-231. The format is cell-based, human. The settings on record: for pIC50: MTT, 48 hours exposure (table title); for Selectivity ratio: STAT3-null A4 versus STAT3-dependent MDA-MB-231. From the text: (§1) MTT Cell viability assay with both MDA-MB-231 breast (STAT3-dependent) and A4 (STAT3-null) cancer cell lines.
(§2) After observing significant STAT3 dimerisation inhibitory activity in the preliminary FP assay, the target ligand and related fragments were progressed to an MTT cytotoxicity assay to evaluate in a STAT3-dependent tumour cell line (MDA MB 231, breast cancer) and a STAT3 null A4 cell line. It was anticipated that the compounds would show selective toxicity towards the STAT3-dependent MDA MB 231 cell line and would have lost activity in the STAT3 null A4 cell line if the mechanism of action was STAT3-mediated.
(§3) For each cell line, a total of 10,000 cells were seeded for 24 hours before addition of the inhibitors. The cells were grown in normal cell culture conditions at 37° C. under a 5% CO2 humidified atmosphere using an appropriate medium. The cell count was adjusted to 10^5 cells/ml, and 5,000-20,000 cells were added per well depending on the cell line. The cells were then incubated for 24 hours, and 1 μl aliquots of the inhibitors were added to the wells in triplicate. […] Absorbance was quantified by spectrophotometry at A=570 nm (Envision™ Plate Reader, PerkinElmer™, USA). IC50 values were calculated by a dose-response analysis using the Prism GraphPad Prism® software package.
For orientation: Tetrazolium assays rely on reduction of a dye to a coloured formazan, in cell work by metabolically active cells.

In experiment [3] the test system is A4 (STAT3-null) cancer cell line. Kind of experiment: MTT cell viability assay, A4. The format is cell-based.
Source text: as §1, §2, §3

Where [4] appears, read: 48 hours exposure (table title).

As a reminder, the inhibition is the percentage by which the read-out fell short of the control. Read a low inhibition as little suppression. By pIC50 is commonly meant −log10 of the IC50, conventionally taken in molar units. Read a high pIC50 as a low IC50. In the case of `COC(=O)c1ccc(N(C)S(=O)(=O)c2cc(C(=O)Nc3ccc(N4CCCCC4)cc3)sc2-c2ccc(N3CCCCC3)cc2)cc1` [Compound 18, methyl 4-((N-methyl-2-(4-(piperidin-1-yl)phenyl)-5-((4-(piperidin-1-yl)phenyl)carbamoyl)thiophene)-3-sulfonamido)benzoate], the inhibition at 100 µM in experiment [1] came out at 45.8%. The pIC50 in experiment [2] (Homo sapiens, MDA-MB-231, 48 h) was 5.46; in experiment [3] (exposure (table title)) it was 4.34. Further, the Selectivity ratio in experiment [2] worked out at 12.94.

The compound `COC(=O)c1ccc(N(C)S(=O)(=O)c2cc(C(=O)Nc3cccc(N4CCCCC4)c3)sc2-c2ccc(N3CCCCC3)cc2)cc1` [Compound 19, methyl 4-((N-methyl-2-(4-(piperidin-1-yl)phenyl)-5-((3-(piperidin-1-yl)phenyl)carbamoyl)thiophene)-3-sulfonamido)benzoate] showed an inhibition at 100 µM in experiment [1] of 43.7%. Moreover, the pIC50 in experiment [2] (Homo sapiens, MDA-MB-231, 48 h) is 5.49; in experiment [3] (exposure (table title)) it was 4.46. Besides, the Selectivity ratio in experiment [2] is on record as 10.81.

In turn, `COC(=O)c1ccc(N(C)S(=O)(=O)c2cc(C(=O)Nc3ccc4c(ccn4Cc4ccccc4)c3)sc2-c2ccc(N3CCCCC3)cc2)cc1` [Compound 20, methyl 4-((5-((1-benzyl-1H-indol-5-yl)carbamoyl)-N-methyl-2-(4-(piperidin-1-yl)phenyl)thiophene)-3-sulfonamido)benzoate] displayed an inhibition at 100 µM in experiment [1] of 35.6%. In addition, the pIC50 in experiment [2] (Homo sapiens, MDA-MB-231, 48 h) is 4.98; in experiment [3] (exposure (table title)) it was 4.23. Further, the Selectivity ratio in experiment [2] was 5.62.

Take `COC(=O)c1ccc(N(C)S(=O)(=O)c2cc(C(=O)Nc3ccc(N4CCCCC4)cc3)sc2Br)cc1` [Compound 21, methyl 4-((2-bromo-N-methyl-5-((4-(piperidin-1-yl)phenyl)carbamoyl)thiophene)-3-sulfonamido)benzoate]: in experiment [1], at 100 µM the inhibition was 22.7%. Moreover, the pIC50 in experiment [2] (Homo sapiens, MDA-MB-231, 48 h) was 4.63; in experiment [3] (exposure (table title)), 4.19. Besides, the Selectivity ratio in experiment [2] worked out at 2.75.

Compound `COC(=O)c1ccc(N(C)S(=O)(=O)c2cc(C(=O)Nc3cccc(N4CCOCC4)c3)sc2Br)cc1` [Compound 22, methyl 4-((2-bromo-N-methyl-5-((3-morpholinophenyl)carbamoyl)thiophene)-3-sulfonamido)benzoate] returned an inhibition at 100 µM in experiment [1] of 11.7%. The pIC50 in experiment [2] (Homo sapiens, MDA-MB-231, 48 h) was 4.46; in experiment [3] (exposure (table title)), 4.13. Besides, the Selectivity ratio in experiment [2] is listed as 2.13.

Consider `COC(=O)c1ccc(N(C)S(=O)(=O)c2cc(C(=O)Nc3ccc(CN4CCOCC4)cc3)sc2Br)cc1` [Compound 23, methyl 4-((2-bromo-N-methyl-5-((4-(morpholinomethyl)phenyl)carbamoyl)thiophene)-3-sulfonamido)benzoate], for which the inhibition at 100 µM in experiment [1] was 31.3%. Besides, the pIC50 in experiment [2] (Homo sapiens, MDA-MB-231, 48 h) was 4.90; in experiment [3] (exposure (table title)) it was 4.27. In experiment [2], the Selectivity ratio was determined as 4.34.

`COC(=O)c1ccc(N(C)S(=O)(=O)c2cc(C(=O)NCc3ccc(N4CCOCC4)cc3)sc2Br)cc1` [Compound 24, methyl 4-((2-bromo-N-methyl-5-((4-morpholinobenzyl)carbamoyl)thiophene)-3-sulfonamido)benzoate] displayed an inhibition at 100 µM in experiment [1] of 9.42%. For the same compound, the pIC50 is 4.46 in experiment [2] (Homo sapiens, MDA-MB-231, 48 h) and 4.48 in experiment [3] (exposure (table title)). For the same compound, in experiment [2], the Selectivity ratio came to 0.96.

Broadly, the % Inhibition is the change of the read-out against control, counted positive when it falls. Read a low % Inhibition as little suppression. `COC(=O)c1ccc(N(C)S(=O)(=O)c2cc(C(=O)NCc3ccc(OCCN4CCOCC4)cc3)sc2Br)cc1` [Compound 25, methyl 4-((2-bromo-N-methyl-5-((4-(2-morpholinoethoxy)benzyl)carbamoyl)thiophene)-3-sulfonamido)benzoate]: in experiment [1], the “% Inhibition” value is recorded as 49.62%. Further, the pIC50 in experiment [2] is 5.44; in experiment [3] (setting [4]), 4.36.

The compound `COC(=O)c1ccc(N(C)S(=O)(=O)c2cc(C(=O)NCc3ccc(N4CCCCC4)cc3)sc2Br)cc1` [Compound 26, methyl 4-((2-bromo-N-methyl-5-((4-(piperidin-1-yl)benzyl)carbamoyl)thiophene)-3-sulfonamido)benzoate] gave an inhibition at 100 µM in experiment [1] of 8.24%. Also, the pIC50 in experiment [2] (Homo sapiens, MDA-MB-231, 48 h) is 4.84; in experiment [3] (exposure (table title)), 4.59. For the same compound, in experiment [2], the Selectivity ratio was 1.77.

In experiment [1], `COC(=O)c1ccc(NC(=O)c2cc(S(=O)(=O)N(C)c3ccc(C(=O)OC)cc3)c(Br)s2)cc1` [Compound 27, methyl 4-(5-bromo-4-(N-(4-(methoxycarbonyl)phenyl)-N-methylsulfamoyl)thiophene-2-carboxamido)benzoate] registered an inhibition at 100 µM of 20.3%. In addition, the pIC50 in experiment [2] (Homo sapiens, MDA-MB-231, 48 h) is 5.06; in experiment [3] (exposure (table title)), 4.23. Moreover, in experiment [2], the Selectivity ratio is recorded as 6.70.

For `COC(=O)c1ccc(N(C)S(=O)(=O)c2cc(C(=O)Nc3cccc(N4CCCCC4)c3)sc2Br)cc1` [Compound 28, methyl 4-((2-bromo-N-methyl-5-((3-(piperidin-1-yl)phenyl)carbamoyl)thiophene)-3-sulfonamido)benzoate], in experiment [1], at 100 µM the inhibition was 51.3%. Besides, the pIC50 in experiment [2] (Homo sapiens, MDA-MB-231, 48 h) was 5.19; in experiment [3] (exposure (table title)), 4.37. Moreover, the Selectivity ratio in experiment [2] was determined as 6.56.

As for `COC(=O)c1ccc(N(C)S(=O)(=O)c2cc(C(=O)Nc3ccc(OCCN4CCOCC4)cc3)sc2Br)cc1` [Compound 29, methyl 4-((2-bromo-N-methyl-5-((4-(2-morpholinoethoxy)phenyl)carbamoyl)thiophene)-3-sulfonamido)benzoate], the “% Inhibition” value in experiment [1] was 42.90%. The values for the pIC50 in experiment [2] and in experiment [3] (setting [4]) were 5.24 and 4.27, respectively.

`COC(=O)c1ccc(N(C)S(=O)(=O)c2cc(C(=O)Nc3ccc(N4CCOCC4)nc3)sc2Br)cc1` [Compound 30, methyl 4-((2-bromo-N-methyl-5-((6-morpholinopyridin-3-yl)carbamoyl)thiophene)-3-sulfonamido)benzoate] came in with an inhibition at 100 µM in experiment [1] of 19.5%. In addition, the negative-log IC50 (pIC50) was 4.61 in experiment [2] (Homo sapiens, MDA-MB-231, 48 h) and 4.08 in experiment [3] (exposure (table title)). Further, the Selectivity ratio in experiment [2] came out at 3.34.

In experiment [1], `COC(=O)c1ccc(N(C)S(=O)(=O)c2cc(C(=O)NCc3ccc(CN4CCOCC4)cc3)sc2Br)cc1` [Compound 31, methyl 4-((2-bromo-N-methyl-5-((4-(morpholinomethyl)benzyl)carbamoyl)thiophene)-3-sulfonamido)benzoate] showed an inhibition at 100 µM of 27.3%. The negative-log IC50 (pIC50) in experiment [2] (Homo sapiens, MDA-MB-231, 48 h) is 4.49; in experiment [3] (exposure (table title)), 4.61. The Selectivity ratio in experiment [2] stood at 0.76.

In the case of `COC(=O)c1ccc(N(C)S(=O)(=O)c2cc(C(=O)NCc3ccc(N4CCN(C)CC4)cc3)sc2Br)cc1` [Compound 32, methyl 4-((2-bromo-N-methyl-5-((4-(4-methylpiperazin-1-yl)benzyl)carbamoyl)thiophene)-3-sulfonamido)benzoate], the inhibition at 100 µM in experiment [1] was 6.18%. Moreover, the pIC50 in experiment [2] (Homo sapiens, MDA-MB-231, 48 h) was 5.12; in experiment [3] (exposure (table title)) it was 4.13. In addition, in experiment [2], the Selectivity ratio stood at 9.73.

`COC(=O)c1ccc(N(C)S(=O)(=O)c2cc(C(=O)NCc3ccc(CN4CCCCC4)cc3)sc2Br)cc1` [Compound 33, methyl 4-((2-bromo-N-methyl-5-((4-(piperidin-1-ylmethyl)benzyl)carbamoyl)thiophene)-3-sulfonamido)benzoate]: the inhibition at 100 µM in experiment [1] was determined as 42.3%. Further, the negative logarithm of the IC50 (pIC50) in experiment [2] (Homo sapiens, MDA-MB-231, 48 h) was 5.35; in experiment [3] (exposure (table title)), 4.03. For the same compound, in experiment [2], the Selectivity ratio was 21.16.
